In brackets after ≈: the same amount, converted by molar mass. Activity calls are given as the source filed them. The rule behind the calls is not given here. Where a SMILES comes first, the peptide text is derived from it.
How the values were obtained:
[1] = tested on: Cell membrane; experiment: Binding affinity to Vibrio parahaemolyticus ATCC17802 cell membrane assessed as increase in fluorescence intensity measured after 120 mins by flow cytometry analysis (reference value: 1.88%); assay type: cell membranes
[2] = Effect on morphological changes in POPC/POPG (3:1) bilayer membrane assessed as formation of bulge aggregates by measuring the height of bulges at 2 ug/ml incubated for 40 mins under neutral pH and low ionic strength by atomic force microscopic analysis; assay type: cell membranes; settings: Cell membrane, dose 2.0 µg/ml
[3] = Hemolytic activity in human erythrocytes measured after 30 mins; assay type: toxicity, cell-based; settings: erythrocyte, 0.5 h
[4] = tested on: Cell membrane; experiment: Induction of outer membrane permeabilization in Escherichia coli ATCC25722 assessed as increase fluorescence intensity at 0.5 to 2 times of MIC by NPN uptake assay; assay type: cell membranes; settings: time <= 15.0 min, TDE = time-dependent effect
[5] = tested on: Cell membrane; experiment: Induction of inner membrane permeabilization in Vibrio parahaemolyticus ATCC17802 assessed as increase in PI fluorescence intensity at 5 times MIC by propidium iodide penetration assay; assay type: cell membranes; settings: time <= 200.0 min
[6] = tested on: Vibrio parahaemolyticus; experiment: Induction of morphological changes in Vibrio parahaemolyticus ATCC17802 assessed as massive cell collapse incubated at 5 times MIC and measured after 180 mins by scanning electron microscopy based analysis; assay type: functional, organism-based
[7] = tested on: Cell membrane; experiment: Induction of outer membrane permeabilization in Vibrio parahaemolyticus ATCC17802 assessed as increase fluorescence intensity measured upto 15 mins by NPN uptake assay; assay type: cell membranes
[8] = tested on: Peritoneal macrophage; experiment: Cytotoxicity against mouse peritoneal macrophage cells incubated for 48 hrs by MTT assay; assay type: toxicity, cell-based; settings: dose < 250 µg/ml
[9] = tested on: Vibrio parahaemolyticus; experiment: Induction of morphological changes in Vibrio parahaemolyticus ATCC17802 assessed as surface fibrosis incubated at 5 times MIC and measured after 180 mins by scanning electron microscopy based analysis; assay type: functional, organism-based
[10] = tested on: Cell membrane; experiment: Binding affinity to Vibrio parahaemolyticus ATCC17802 cell membrane assessed as increase in fluorescence intensity measured after 30 mins by flow cytometry analysis (reference value: 1.85%); assay type: cell membranes
[11] = tested on: Lipopolysaccharide (LPS); experiment: Binding affinity to Escherichia coli LPS assessed as dissociation constant measured upto 600 sec by surface plasmon resonance imaging method
[12] = tested on: Escherichia coli; experiment: In vivo antibacterial activity against Escherichia coli ATCC25722 infected in Balb/c mouse model assessed as reduction in bacterial CFU count on skin at 20 ug/ml incubated for 6 hrs post infection and measured after 2 hrs post compound treatment; assay type: functional, organism-based; settings: dose 20.0 µg/ml, time 8.0 hrs
[13] = tested on: Vibrio parahaemolyticus; experiment: Induction of bacterial resistance in Vibrio parahaemolyticus ATCC17802 assessed as fold increase in MIC treated over 30 serial passages measured after 24 hrs; assay type: functional
[14] = tested on: Lipopolysaccharide (LPS); experiment: Binding affinity to Escherichia coli LPS assessed as LPS neutralizing activity measured after 5 mins by LPS neutralization assay
[15] = tested on: Vibrio parahaemolyticus; experiment: Induction of morphological changes in Vibrio parahaemolyticus ATCC17802 assessed as cellular inclusion leakage incubated at 5 times MIC and measured after 180 mins by scanning electron microscopy based analysis; assay type: functional, organism-based
[16] = tested on: Cell membrane; experiment: Induction of outer membrane permeabilization in Escherichia coli ATCC25722 assessed as increase fluorescence intensity measured upto 15 mins by NPN uptake assay; assay type: cell membranes
[17] = tested on: Bacillus cereus; experiment: Antimicrobial activity against clinical isolates Bacillus cereus by two fold broth microdilution method; assay type: functional
[18] = tested on: Escherichia coli; experiment: In vivo antibacterial activity against Escherichia coli ATCC25722 infected in Balb/c mouse model assessed as reduction in bacterial CFU count on skin at 20 ug/ml applied 4 hrs after infection and measured after 120 mins; assay type: functional, organism-based; settings: dose 20.0 µg/ml
[19] = tested on: Lipopolysaccharide (LPS); experiment: Binding affinity to Escherichia coli LPS assessed as LPS neutralizing activity measured after 60 mins by LPS neutralization assay
[20] = tested on: Escherichia coli; experiment: Antimicrobial activity against Escherichia coli ATCC27622 by two fold broth microdilution method; assay type: functional
[21] = tested on: Staphylococcus aureus; experiment: Antimicrobial activity against clinical isolates Staphylococcus aureus by two fold broth microdilution method; assay type: functional
[22] = tested on: Vibrio parahaemolyticus; experiment: Bactericidal activity against Vibrio parahaemolyticus ATCC17802 assessed as killing rate at 0.5 X MIC by measuring time limit of detection by bacterial killing kinetic assay; assay type: functional
[23] = tested on: Staphylococcus aureus; experiment: Antimicrobial activity against Staphylococcus aureus ATCC25923 by two fold broth microdilution method; assay type: functional; settings: read-out: MIC
[24] = tested on: Cell membrane; experiment: Induction of inner membrane permeabilization in Vibrio parahaemolyticus ATCC17802 at 5 times MIC measured upto 200 mins by propidium iodide penetration assay; assay type: cell membranes
[25] = tested on: Vibrio parahaemolyticus; experiment: Antimicrobial activity against Vibrio parahaemolyticus ATCC17802 by two fold broth microdilution method; assay type: functional
[26] = tested on: Cell membrane; experiment: Induction of outer membrane permeabilization in Vibrio parahaemolyticus ATCC17802 assessed as increase fluorescence intensity at 0.5 to 2 times of MIC by NPN uptake assay; assay type: cell membranes; settings: time <= 15.0 min, TDE = time-dependent effect
[27] = tested on: HaCaT; experiment: Cytotoxicity against human HaCaT cells incubated for 48 hrs by MTT assay; assay type: toxicity, cell-based; settings: dose < 250 µg/ml
[28] = tested on: Cell membrane; experiment: Induction of cytoplasmic membrane permeabilization in Vibrio parahaemolyticus […] assessed as calcein transmembrane diffusion into interior of gaint unilamellar vesicles by measuring time to equilibrium between inside and outside of vesicles at 2 ug/mL by confocal microscopy based calcein-AM leakage assay; assay type: cell membranes; settings: dose 2.0 µg/ml
[29] = tested on: Cell membrane; experiment: Induction of inner membrane permeabilization in Vibrio parahaemolyticus ATCC17802 assessed as calcein leakage at 5 times MIC by calcein-AM leakage assay; assay type: cell membranes; settings: time <= 200.0 min, TDE = time-dependent effect
[30] = tested on: Escherichia coli; experiment: Bactericidal activity against Escherichia coli ATCC25722 assessed as killing rate at 0.5 X MIC measured upto 180 min by bacterial killing kinetic assay; assay type: functional, organism-based
[31] = tested on: Staphylococcus aureus; experiment: Bactericidal activity against Staphylococcus aureus ATCC25923 assessed as killing rate at 0.5 X MIC measured upto 180 min by bacterial killing kinetic assay; assay type: functional, organism-based

Row | Structure (SMILES) | Activity [5] | fold change (FC) [13] | MIC [17] [µg/mL] | MIC [20] [µg/mL] | MIC [21] [µg/mL] | Time [22] [min] | MIC [23] [µg/mL] | Activity [24] | MIC [25] [µg/mL] | also measured
1 | CC[C@H](C)[C@H](NC(=O)[C@H](CCCCN)NC(=O)[C@H](CCCNC(=N)N)NC(=O)[C@H](CC(C)C)NC(=O)[C@H](CC(C)C)NC(=O)[C@H](CCCCN)NC(=O)[C@H](CCCCN)NC(=O)[C@H](Cc1ccccc1)NC(=O)[C@H](CC(C)C)NC(=O)CNC(=O)[C@@H](N)CCCNC(=N)N)C(=O)N[C@@H](CCCCN)C(=O)N[C@@H](CCCCN)C(=O)NCC(=O)N[C@@H](Cc1ccccc1)C(=O)N[C@@H](CCCCN)C(=O)N[C@@H](CCCCN)C(=O)O (H-RGLFKKLLRKIKKGFKK-OH) | Active | 16 | 9.38 (≈ 4.49 µM) | 4.69 (≈ 2.25 µM) | 18.8 (≈ 8.98 µM) | 120 | 2.34 (≈ 1.12 µM) | Active | 4.69 (≈ 2.25 µM) | Activity [1]: 99.5%; Activity [2]: 1 nm; Activity [3]: Toxic; Activity [4]: Tde; Activity [6]: Active; Activity [7]: Dose-Dependent Effect; Activity [8]: Dose-Dependent Effect; Activity [9]: Active; Activity [10]: 20.6%; Kd [11]: 23.5 µM; Activity [12]: Active; Activity [14]: inactive; Activity [15]: Active; Activity [16]: Dose-Dependent Effect; Activity [18]: inactive; Activity [19]: Active; Activity [26]: Tde; Activity [27]: Dose-Dependent Effect; TIME [28]: 1 h
2 | CC[C@H](C)[C@H](NC(=O)[C@H](CC(C)C)NC(=O)[C@H](CCCNC(=N)N)NC(=O)[C@H](CC(C)C)NC(=O)[C@H](CC(C)C)NC(=O)[C@H](CCCCN)NC(=O)[C@H](CCCCN)NC(=O)[C@H](Cc1ccccc1)NC(=O)[C@H](CC(C)C)NC(=O)CNC(=O)[C@@H](N)CCCNC(=N)N)C(=O)N[C@@H](CCCCN)C(=O)N[C@@H](CCCCN)C(=O)NCC(=O)N[C@@H](Cc1ccccc1)C(=O)N[C@@H](CCCCN)C(=O)N[C@@H](CCCCN)C(=O)O (H-RGLFKKLLRLIKKGFKK-OH) | Active | – | 9.38 (≈ 4.52 µM) | 4.69 (≈ 2.26 µM) | 18.8 (≈ 9.04 µM) | 60 | 2.34 (≈ 1.13 µM) | Active | 4.69 (≈ 2.26 µM) | Activity [29]: Tde
3 | CC[C@H](C)[C@H](NC(=O)[C@H](CCCCN)NC(=O)[C@H](CC(C)C)NC(=O)[C@H](C)NC(=O)CNC(=O)[C@H](CC(N)=O)NC(=O)[C@H](CC(C)C)NC(=O)[C@@H](NC(=O)[C@H](CCCCN)NC(=O)[C@H](CCCCN)NC(=O)[C@H](Cc1c[nH]c2ccccc12)NC(=O)[C@H](Cc1ccccc1)NC(=O)[C@H](CCCCN)NC(=O)[C@H](CCCNC(=N)N)NC(=O)[C@H](CCCNC(=N)N)NC(=O)[C@@H](N)[C@@H](C)O)C(C)C)C(=O)N[C@@H](C)C(=O)O (H-TRRKFWKKVLNGALKIA-OH) | – | – | 9.38 (≈ 4.62 µM) | 9.38 (≈ 4.62 µM) | 18.8 (≈ 9.24 µM) | 30 | 4.69 (≈ 2.31 µM) | – | 4.69 (≈ 2.31 µM) | Activity [30]: Active; Activity [31]: Active
4 | CC1(C)S[C@@H]2[C@H](NC(=O)[C@H](N)c3ccccc3)C(=O)N2[C@H]1C(=O)O [AMPICILLIN] | – | 32 | 4.69 (≈ 13.4 µM) | 2.34 (≈ 6.7 µM) | > 200 | – | 0.59 (≈ 1.69 µM) | – | 0.59 (≈ 1.69 µM) | –

Source: ChEMBL document CHEMBL5236579, “Hydrophobicity Determines the Bacterial Killing Rate of α-Helical Antimicrobial Peptides and Influences the Bacterial Resistance Development” (J Med Chem, 2022)
